This is an account of results in ChEMBL document CHEMBL5038574, “Selaginellin Derivatives from Selaginella tamariscina and Their Upregulating Effects on Low-Density Lipoprotein Receptor Expression” (J Nat Prod, 2021).

Common to all, as to assay type: functional, cell-based
Experiment [1] relates to HepG2. The experiment can be described thus: Up regulation of APOC2 mRNA expression in human HepG2 cells at 50 uM for 24 hrs by qPCR analysis. In general terms: Quantitative PCR measures a nucleic acid by following its amplification.
The subject of experiment [2] is HepG2. The experiment in a line: Up regulation of SREBP mRNA expression in human HepG2 cells at 50 uM for 24 hrs by qPCR analysis.
Experiment [3] deals with HepG2. The experiment in a line: Up regulation of LDLR mRNA expression in human HepG2 cells at 50 uM for 24 hrs by qPCR analysis.
Experiment [4] deals with HepG2. The experiment can be described thus: Up regulation of APOE mRNA expression in human HepG2 cells at 50 uM for 24 hrs by qPCR analysis.
Experiment [5] concerns HepG2. The experiment can be described thus: Up regulation of protein expression in human HepG2 cells at 10 to 50 uM for 24 hrs by western blot analysis. The settings on record: dose 10-50 µM. For orientation: A western blot detects proteins with antibodies after separation by electrophoresis.

Calls of active or inactive are those of the source. No cut-off for these calls is given here.

Regarding `COCc1ccc2c(c1CC(=O)c1ccc(O)cc1)C(c1ccc(OC)cc1)(c1ccc(OC)cc1)c1cc(O)ccc1-2`, the result with HepG2 [1], in the experiment with HepG2 [2], with HepG2 [3], in the experiment with HepG2 [4] and with HepG2 [5] was Active.
For the compound `COc1ccc(C(=C2C=CC(=O)C=C2)c2c(-c3ccc(O)cc3)ccc(COc3ccc(C(=C4C=CC(=O)C=C4)c4c(-c5ccc(O)cc5)ccc(CO)c4C#Cc4ccc(O)cc4)cc3)c2C#Cc2ccc(O)cc2)cc1`, the outcome with HepG2 [3] was inactive.
Take `O=C1C=CC(=C(c2ccc(O)cc2)c2c(-c3ccc(O)cc3)ccc(COc3ccc([C@@]4(c5ccc(O)cc5)c5cc(O)ccc5-c5ccc(CO)c(C#Cc6ccc(O)cc6)c54)cc3)c2C#Cc2ccc(O)cc2)C=C1`: the result in the experiment on HepG2 [3] was inactive.
With `O=C1C=CC(=C(c2ccc(O)cc2)c2c(-c3ccc(O)cc3)ccc(CO)c2C#Cc2ccc(O)cc2)C=C1`, the result in the experiment on HepG2 [3] was inactive.
The same measure, in the same setting: for `O=C1C=CC(=C(c2ccc(OCc3ccc(-c4ccc(O)cc4)c(C(=C4C=CC(=O)C=C4)c4ccc(O)cc4)c3C#Cc3ccc(O)cc3)cc2)c2c(-c3ccc(O)cc3)ccc(CO)c2C#Cc2ccc(O)cc2)C=C1` the value was “inactive”; for `O=C1C=CC(=C(c2ccc(O)cc2)c2c(-c3ccc(O)cc3)ccc(COCc3ccc(-c4ccc(O)cc4)c(C(=C4C=CC(=O)C=C4)c4ccc(O)cc4)c3C#Cc3ccc(O)cc3)c2C#Cc2ccc(O)cc2)C=C1`, “inactive”.
